According to patent US6380165B1, “Immunological advanced glycation endproduct crosslink” (The Picower Institute for Medical Research, priority 1997, dated 2002):
Where a SMILES comes first, the peptide text is derived from it. The star is where a group is joined. Cbz = O=C(OCc1ccccc1)*

Experiments:
[1] = system: polyclonal anti-AGE antibody “RU”; assay: anti-AGE antibody-based competitive ELISA to measure AGE content (AGE-BSA as absorbed antigen); assay type: binding, rabbit; details: FIG. 1
Excerpt: For comparison purposes, the reactivity of FFI, CML, AFGP, pentosidine and cyclic pentosidine, and ligands with related epitope structure, such as N^α-Z-arg-lys, N^α-Z-arg-lys-AP, an imidazolium adduct, a pyrimidinium adduct, histidine, and lys-his, were studied. ELISA competition curves for the polyclonal anti-AGE antibody “RU” followed the methods described by Makita et al. (J. Biol. Chem. 267:1992, 1992). Assays employed glucose-derived, AGE-BSA as the absorbed antigen. FFI: 4-furanyl-2-furoyl-1H-imidazole (Ponger et al,. Proc. Natl. Acad Sci. U.S.A. 81:2684, 1984), CML: carboxy-methyllysine (Ahmed et al., J. Biol. Chem. 261:4889, 1986), AFGP: 1-alkyl-2-formyl-3,4-diglycosylpyrrole (Farmar et al., J. Org. Chem. 53:2346, 1988), PY: pyrraline (Njoroge et al., Carbohydrate Res. 167:211, 1987), P: pentosidine (Sell and Monnier, J. Biol. Chem. 264:21597, 1989), CP: cyclic pentosidine (CP) (Al-Abed et al., Bioorg. Med. Chem. Lett. 5:2929, 1995), AL: N^α-Z-arg-lys (AL), ALAP: N^α-Z-arg-lys-AP, H: histidine, LH: lys-his, PA: pyrimidinium adduct (Al-Abed et al., Bioorg. Med. Chem. Lett. 6:1577, 1996), and IA: imldazolium adduct (Brinkmann et al., J. Chem. Soc. Perkin Trans.
This example illustrates the discovery and isolation of the AGE of formula I. The dipeptide N^α-Z-arg-lys was selected as a target, because a close association of the arginine and lysine residues provides a significant proximity effect that promotes crosslink formation. Moreover, a synthetic strategy employing an arg-lys dipeptide was used successfully in the past to isolate a cyclic pentosidine in a high yield (Beisswenger et al., Diabetes 44:824, 1995). N^α-Z-arg-lys (13 mmoles) was incubated together with 10 equivalents of glucose in 0.2 M phosphate buffer (pH 7.4) for five weeks at 37° C. At least 25 distinct reaction products were identified upon fractionation of this mixture by reverse-phase HPLC. Each fraction was isolated, concentrated, and analyzed for its reactivity with anti-AGE antibody by ELISA (Makita et al., J. Biol Chem. 267:1992, 1992). Briefly, HPLC fractions and purified compounds were analyzed by an AGE-specific ELISA following methods described previously (Makita et al., J. Biol. Chem. 267:1992, 1992). This ELISA employed a polyclonal anti-AGE antibody raised by hyperimmunization against a heavily AGE-crosslinked preparation of ribonuclease. Total IgG was prepared by protein-G affinity chromatography and the ribonuclease backbone specificities removed by immunoabsorption. For assaying AGE immunoreactivity, 96-well round bottom microtitre plates (EIA/RIA plate, Costar, Cambridge, Mass.) first were coated with AGE-BSA (3 mg/ml, dissolved in 0.1 M sodium bicarbonate, pH 9.6) by incubation overnight at 4° C. After washing, the unbound sites were blocked with SuperBlock™ following the manufacturer's recommendations (Pierce, Rockford, Ill.). After washing, dilutions of test antigen, together with anti-AGE IgG, were added and the plates incubated at room temperature for 1 hr. The plates then were washed again and incubated with a secondary antibody (alkaline phosphatase-conjugated anti-rabbit IgG) at 37° C. for 1 hr. The unbound antibodies were removed by extensive washing and bound antibodies were detected by incubation with-nitrophenyl phosphate (pNPP) substrate for 30-60 min, and recording the optical density at 405 nm by an ELISA reader (EL309, Bio-Tek Instruments Inc., Burlington, Vt.). Results were expressed as B/B0, calculated as [experimental OD—background OD (i.e. no antibody)]/[total OD (i.e. no competitor)—background OD].

AGE formation = assay: formation of the ALI crosslink from glucose and Nα-Z-arg-lys, inhibition of forming
Excerpt: This example illustrates a proposed mechanism of the AGE formation (FIG. 2). First, dehydration of the lysine-derived AP (which has been determined to form in 18% yield under these reaction conditions) gives an obligate, AP-dione reactive intermediate. Reversible addition of the guanidine moiety to the dicarbonyl yields the 2-amino-4,5-dihydroxyimidazole adduct, which then undergoes dehydration to deliver the stable cyclic ALI.

[2] = acid lability of the isolated crosslink; assay type: physicochemical

| Compound | crossreactivity / reactivity with the RU anti-AGE antibody [1] | other results |
| --- | --- | --- |
| N[C@@H](CCCCn1c(C=O)ccc1CO)C(=O)O [PY, pyrraline] | no detectable crossreactivity | – |
| 1-alkyl-2-formyl-3,4-diglycosylpyrrole [AFGP] | no detectable crossreactivity | – |
| N=C(N)NN [aminoguanidine] | – | inhibition of crosslink (ALI) formation (AGE formation): inhibited from forming |
| N=C(N)NCCC[C@H](NC(=O)OCc1ccccc1)C(=O)N[C@@H](CCCCN)C(=O)O [AL, N^α-Z-arg-lys] (Cbz-Arg-Lys-OH) | no detectable crossreactivity | – |
| 4-furanyl-2-furoyl-1H-imidazole [FFI] | no detectable crossreactivity | – |
| O=C(NC1CCCNC2=NC(=CNCCCCC(C(=O)O)NC1=O)C(CC(O)CO)=N2)OCc1ccccc1 (stereo not drawn) [ALI, Arg-Lys-Imidazole] | – | acid stability of the crosslink [2]: acid-labile |
| pentosidine | no detectable crossreactivity | – |
| N[C@@H](Cc1c[nH]cn1)C(=O)O [H, histidine] | no detectable crossreactivity | – |
| cyclic pentosidine [CP] | no detectable crossreactivity | – |
| NCCCC[C@H](N)C(=O)N[C@@H](Cc1cnc[nH]1)C(=O)O [LH, lys-his] | no detectable crossreactivity | – |
| N^α-Z-arg-lys-AP [ALAP] | no detectable crossreactivity | – |
